Reference: patent US20160158245A1, “PHARMACEUTICAL FORMULATION CONTAINING THIENOTRIAZOLODIAZEPINE COMPOUNDS” (ONCOETHIX GmbH, priority 2013, published 2016)

What was measured:
Type in all cases: cell-based
ALL cell lines = assay: MTT assay, statement over all ALL cell lines; conditions: MTT at 72 h, span over ALL cell lines; read-out: GI50 across all ALL cell lines
Procedure: Different representative cell lines for ALL including Jurkat cells (T-ALL), RS 4-11 (MLL-AF4 B-precursor ALL), TO′M-1, BV173 (both Ph+ALL) and AML including K562 (Ph+CML in blast crisis,), HL-60 (NRAS driven AML2), NOMO1 (MLL-AF9 driven AML), KG1 (BMP-FGRF+AML6) and its more immature subtype KG1a were cultured in RPMI 1640 (Gibco Invitrogen, Basel, Switzerland) supplemented with 10% or 20% heat-inactivated fetal calf serum respectively, 2 mM L-glutamine, 100 IU/mL penicillin, and 100 µg/mL streptomycin.
MTT-assay: cells were seeded first into 24-well plates at the density of […] per well to avoid variations of concentrations in smaller volumes and treated with different doses of OTX015 prepared freshly from 1 mM stock solution in DMSO. Cells were transferred to 96-well plates for MTT-assay. Untreated cells and cells treated with equal amounts of DMSO (0.2-1%) used for dilution of OTX015 were used as controls. The 3-(4,5-dimethylthiazol-2-yl)-2,5-diphenyltetrazolium bromide (MTT) (Molecular Probes, Eugene, USA) was prepared as a stock of 5 mg/ml in PBS. […] Cells were then lysed with 25% SDS lysis buffer and absorbance was read at 570 nm. […] GI50 values were calculated with Prism v5 software (GraphPad Inc., La Jolla, USA).
AML and ALL cell lines were exposed to increasing concentrations of compound (1-1), (0.1 nM-10 μM). […] GI50 values were expressed as means from 3 independent experiments.

Ph+ALL patient cells = assay: Apoptosis in primary patient cells treated ex vivo; conditions: 1 Ph+ ALL patient sample ex vivo, 72 h, 250 and 500 nM
Procedure: (§1) FIGS. 44A-44D show effects of OTX015 on primary patient cells. 5 samples from AML patients and 2 ALL, including 1 ALL Ph+ patient, were treated ex vivo with OTX015. OTX015 induced apoptosis in primary AML patient samples at various degrees ranging from 35-85% (FIG. 6). The Ph+ALL patient appeared to be resistant. OTX015 induced apoptosis in primary cells of the AML and ALL patients. Mononuclear cells were obtained from bone marrow (BM) or peripheral blood (PB) from AML and ALL patients. Cells were exposed 72 h with 250 and 500 nM of OTX015 and apoptosis was assessed by annexin V and PI staining. Results are shown with means±SD from duplicates of one experiment.
(§2) Mononuclear cells (MNC) from the bone marrow (BM) were isolated by Ficoll-Paque PLUS density gradient (Amersham Biosciences, Sunnyvale, USA). Patient cells were maintained in IMDM (Gibco) supplemented with 10% heat-inactivated fetal calf serum, 2 mM L-glutamine, 100 IU/mL penicillin, and 100 µg/mL streptomycin without growth factors.
(§3) a total of 1×10^6 cellsderived from patients or cell lines were resuspended in 1 mL culture medium and incubated with the indicated dosages of OTX015 prepared freshly from 1 mM stock solution in DMSO. […] Apoptotic cells were detected by cytofluorometric analysis using a FACScan (Becton Dickinson, Mountain View, USA). […] Data were analyzed with the Flowjo (Tree Star Inc., Ashland, USA) flow cytometry software. […]

[1] = system: primary AML patient samples; assay: Apoptosis in primary patient cells treated ex vivo; conditions: 5 AML patient samples ex vivo, 72 h, 250 and 500 nM
Procedure: as §1, §2, §3

BRD4, BRD2 and BRD3 = assay: RQ-PCR of BRD4, BRD2 and BRD3 in leukemia cell lines; conditions: 250 nM and 500 nM, 48 h
Procedure: The total RNA obtained after extraction with TRIZOL (Invitrogen, Grand Island, USA) were titrated to 1 μg/uL and stored at −80° C. The complementary DNA (cDNA) was synthesized from 1 μg RNA. The RQ-PCR reactions (BRD2, BRD3, BRD4, c-MYC and ABL) were performed in a volume of 25 ul from a tenth of the cDNA (equivalent to 100 ng of RNA) on a thermocycler ABI7900HT in standard mode (1 cycle of 2 minutes at 50° C.-10 minutes at 95° C. followed by 50 cycles of 15 seconds at 95° C.-1 minute at 60° C.).

c-MYC in Jurkat = assay: Immunoblot (protein level) in Jurkat; conditions: 500 nM, 48 h and 72 h
Procedure: (§4) FIGS. 43A-43L illustrate effects of OTX015 at the protein level for BRD 4, BRD2 and BRD 3 as well as c-MYC. […] AML cell lines HL60, K562 (FIGS. 43A-43C; FIG. 43D-43F) and ALL cell lines Jurkat and RS4-11 (FIG. 43G-43I; FIG. 4JD-43L) were treated with OTX015 at 500 nM and compared to controls exposed to according DMSO. At indicated time-points proteins were extracted and immunoblotted with BRD4, BRD3, BRD2 or c-MYC antibodies after gel electrophoresis. […] One representative experiment out of three is shown.
(§5) The membranes were blocked with LiCor blocking buffer (LiCor, Lincoln, Nebr., USA) and incubated with the respective primary antibody: anti-BRD4 (Epitomics 5716-1, Burlingame, USA), anti-BRD3 (ab56342, AbCam, UK), anti-BRD2 (ab37633, AbCam, UK), anti c-MYC (sc-764 (N262), Santa Cruz, USA) and anti-GAPDH (Invitrogen 398600, Grand Island, USA). Blots were stained with either goat anti-rabbit InfraRedDye 680RD or goat anti-mouse InfraRedDye 800CWsecondary antibody (LiCor). Membranes were imaged using a LiCor Odyssey scanner. Boxes were manually placed around each band of interest, which returned near-infrared fluorescent values of raw intensity with intra-lane background subtracted using Odyssey 3.0 analytical software (LiCor).

[2] = system: BRD4, BRD3 and c-MYC in RS4-11; assay: Immunoblot (protein level) in RS4-11; conditions: RS4-11, 500 nM
Procedure: as §4, §5

For `Cc1sc2c(c1C)C(c1ccc(Cl)cc1)=N[C@@H](CC(=O)Nc1ccc(O)cc1)c1nnc(C)n1-2` [Compound (1-1), 2-[(6S)-4-(4-chlorophenyl)-2,3,9-trimethyl-6H-thienol[3,2-f]-[1,2,4]triazolo[4,3-a][1,4]diazepin-6-yl]-N-(4-hydroxyphenyl)acetamide dihydrate], the GI50 (ALL cell lines) was 0.0342 to 0.25 µM, the “sensitivity to apoptosis induction” value (Ph+ALL patient cells) was “resistant” and the apoptosis [1] was 35-85%. The “down regulation of BRD4, BRD2 or BRD3 at the cDNA level” value (BRD4, BRD2 and BRD3) was “not able to detect a consistent down regulation”, the “upregulation of BRD3 and BRD2 at the cDNA level” value (BRD4, BRD2 and BRD3) was “significant upregulation of BRD3 and BRD2 in KG1, K562 and Jurkat and increase of BRD2 in KG1 and HL60” and the c-MYC protein level (c-MYC in Jurkat) was “c-MYC downregulation”. For the same molecule, the “BRD4, BRD3 and c-MYC protein level” value [2] was “remained unaffected”.
